Consider two sequences from ChEMBL document CHEMBL1129004, “Synthesis and in vitro cytotoxicity of cis-(glycolato-O,O)-[2-substituted-(4R,5R)-4,5-bis(aminomethyl)-1,3-dioxolane]platinum (II)” (Bioorg Med Chem Lett, 1996).

Holding throughout (format): functional, cell-based
Assay [1] deals with KATO III stomach cancer cell line. Briefly: Compound was tested in vitro for cytotoxic activity against KATO III human stomach cancer cell line by MTT assay. A general note: Tetrazolium dyes change colour on reduction, which living cells bring about.
The test system of another assay is MKN-45. Nature of the assay: Compound was tested in vitro for cytotoxic activity against MKN-45 human stomach cancer cell line by MTT assay.
For a further assay, the system named is PC-9. Nature of the assay: Compound was tested in vitro for cytotoxic activity against PC-9 human non-small cell lung cancer cell line by MTT assay.
The test system of a further assay is PC-14. Briefly: Compound was tested in vitro for cytotoxic activity against PC-14 human non-small cell lung cancer cell line by MTT assay.

In the case of CISPLATIN, the IC50 in assay [1] was 5.2 µM; in the assay with MKN-45, 3.7 µM; in the assay with PC-9, 5 µM; with PC-14 it was 1.5 µM.
In the case of CARBOPLATIN, the IC50 in assay [1] worked out at 49.7 µM; in the assay with MKN-45, 32.4 µM; with PC-9, 60.5 µM; in the assay with PC-14 it was 9.7 µM.

As a reminder, the IC50 is the concentration that gives 50% inhibition. Low values mean greater potency in that assay, high ones weaker potency in that assay.
